Test results as given in patent US12384775B2, “Pyrimid-2-yl-pyrazole compounds as IRAK inhibitors” (Rigel Pharmaceuticals, Inc., priority 2022, dated 2025).
Counter-ions that a name gives are not always drawn. Like-named read-outs stand apart in the source and are kept apart here.

Tests used:
[1] = Bioavailability of prodrug I-3, monkey; assay type: in vivo; settings: measured as amount of parent compound I-1 detected
[2] = Bioavailability of prodrug I-3, mouse; assay type: in vivo; settings: measured as amount of parent compound I-1 detected
IL23p19 in THP-1 Cells = assay: LPS induced IL23p19 in THP-1 cells (IFNγ primed), ELISA; assay type: cell-based; settings: Homo sapiens, THP-1 cells IFNγ primed, LPS 1 μg/mL, 18 h, read-out: IL23-p19 ELISA, THP1-IFNy, LPS, 10 pt EC50
Protocol: On day 1, 50K/well THP-1 cells were seeded and primed with IFNγ (50 ng/mL) in 384-well plates for about 18 hours in RPMI media with 10% FBS. On day 2, the compound was serially diluted in DMSO from 5 mM in 3-fold dilutions, and then diluted 1:125 in RPMI media with 10% FBS. 50 μL/well 2× compound was added to 50 μL/well THP-1 cells (with IFNγ primed) in duplicate in 384 well tissue culture plates. The cells were pre-incubated with compound for 1 hour at 37° C., 5% CO2 before addition of 10 μL/well 11×LPS to give a final concentration of 1 μg/mL LPS. Day 3, after stimulation for 18 hours at 37° C., 5% CO2, the assay plate was centrifuged and 70 μL/well supernatant was harvested. IL-23p19 protein in 70 μL/well of supernatant was measured by sandwich ELISA, and 25 μl/well Cell Titer Glo reagent was added to the remaining cells to measure compound toxicity.
Maxisorp immuno ELISA plates were pre-coated with 25 μL/well of anti-IL-23p19 capture antibody (2.5 ug/mL) in PBS overnight at room temperature. After washing with 1×PBST, the plates were blocked using 100 μL/well of 1% BSA in PBS for 2 hours at room temperature. The plates were washed three times with 1×PBST and 70 μL/well supernatant were added. The plates were incubated at room temperature for 2 hours with shaking and washed three times with 1×PBST. 25 μL/well of biotin labeled anti-IL-12 (p40/p70) detection antibody (100 ng/mL) in PBS with 1% BSA was added and the plates were incubated at room temperature for 2 hours with shaking. After washing three times with 1× PBST, 25 μL/well of streptavidin-HRP (1:200) in PBS with 1% BSA was added and the plates were incubated at room temperature for 20 minutes with shaking. The plates were washed three times with 1× PBST and 25 μL/well of Super Signal ELISA Pico Chemiluminescent Substrate were added. The plates were read with a luminometer, and the chemiluminescence values were entered into Athena (Rigel) for curve fitting, EC50 calculation, and database storage.
THP-1 cells (100K in 100 μL/well) were primed with 25 ng/mL IFN-γ for 18 hours at 37° C., 5% CO2. Compound was serially diluted in DMSO from 2.5 mM in 4-fold dilutions, and then diluted 1:125 in RPMI 1640 complete media with 10% FBS. 100 μL/well 2× compound was mixed with the 100 μL/well IFN-7 primed THP-1 in 96 well flat-bottom white tissue culture plates. The cells were pre-incubated with compound for 1 hour at 37° C., 5% CO2 and before addition of 10 μL/well 21×LPS to give a final concentration of […] for LPS. The cells were stimulated with LPS for 18 hours at 37° C., 5% CO2. After centrifugation, 100 μL/well supernatant was extracted by using a multichannel pipette. IL-23p19 or TNF-α protein in the supernatant were measured by sandwich ELISA. The remaining IFN-7 primed THP-1 cell pellets were used to perform cell viability assays to determine compound cell toxicity. The plates were read with a luminometer, and the chemiluminescence values were entered into Athena (Rigel) for curve fitting, EC50 calculation, and database storage.
Maxisorp immuno ELISA plates were pre-coated with 100 μL/well of anti-IL-23p19 capture antibody (2.4 μg/mL) in PBS overnight at room temperature. After washing with 1×PBST, the plates were blocked using 300 μL/well of 1% BSA in PBS for 2 hours at room temperature. The plates were washed three times with 1×PBST and 100 μL/well supernatant was added. The plates were incubated at room temperature for 2 hours with shaking. The plates were washed three times with 1×PBST and 100 μL/well of biotin anti-human IL-12 (p40/70) detection antibody (10 ng/mL) in PBS with 0.1% BSA were added. The plates were incubated at room temperature for 2 hours with shaking. The plates were washed three times with 1×PBST and 100 μL/well streptavidin-HRP (1:200) in PBS with 0.1% BSA was added. The plates were incubated at room temperature for 20 minutes with shaking. […]

[3] = Bioavailability of prodrug I-3, dog; assay type: in vivo; settings: measured as amount of parent compound I-1 detected
IRAK4 = target: T1, IRAK4 (Homo sapiens, UniProt Q9NWZ3); assay: IRAK4 ADP-Glo kinase assay; assay type: biochemical; settings: read-out: IRAK4 ADP-Glo Kinase, 8 pt EC50
T1 construct: purchased Signalchem I12-10G-20
T1 sequence (Q9NWZ3 1-460): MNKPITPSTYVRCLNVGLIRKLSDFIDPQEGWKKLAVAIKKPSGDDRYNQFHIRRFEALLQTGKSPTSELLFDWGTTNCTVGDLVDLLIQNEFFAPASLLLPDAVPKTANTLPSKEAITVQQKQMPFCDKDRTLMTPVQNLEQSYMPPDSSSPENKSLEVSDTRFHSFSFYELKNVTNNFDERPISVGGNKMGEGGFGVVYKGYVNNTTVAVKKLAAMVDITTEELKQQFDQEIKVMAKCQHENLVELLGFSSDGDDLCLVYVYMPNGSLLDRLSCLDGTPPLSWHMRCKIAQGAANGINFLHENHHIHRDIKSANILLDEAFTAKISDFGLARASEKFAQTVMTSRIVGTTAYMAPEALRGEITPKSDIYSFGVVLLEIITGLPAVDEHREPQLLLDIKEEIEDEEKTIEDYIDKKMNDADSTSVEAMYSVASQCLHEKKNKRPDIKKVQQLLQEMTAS
Protocol: The ADP-Glo™ reagents were thawed at ambient temperature. The Kinase Detection Reagent was prepared by mixing kinase detection buffer with the lyophilized kinase detection substrate, and set aside.
A stock volume of 5× Reaction Kinase Buffer was made with a final concentration of 100 mM MgCl2, 200 mM Tris-HCl, and 0.5 mg/ml of BSA, in distilled H2O with a final pH7.4. A 2× working stock volume of Reaction Kinase Buffer was made containing a final concentration of 100 μM DTT.
The components of IRAK4 Enzyme were thawed on ice. Diluted IRAK4 in 1× Kinase Reaction Buffer (diluted from 2× buffer) was prepared at […]. A 250 μM working stock ATP Assay Solution was prepared in 1× Kinase Reaction Buffer (diluted from 2× buffer).
The compound was diluted in DMSO from 250 µM in 4-fold series dilutions for 8 points. Then diluted 1:5 in 2× Reaction Buffer in a 96 well plate. 1.0 μl was transferred to a 384 well plate in duplicate. […] 1 μl of 1 mg/ml stock solution of MBP substrate was added NOTE: MBP can be combined with ATP mix with equal volume and then added at 2 μl/well. Final reaction volume was 5 μl. The plate was centrifuged and the reaction mixture was incubated at room temperature for 60 minutes or at 30° C. for 30 minutes.
The reaction was terminated and the remaining ATP was depleted by adding 5 μl of ADP-Glo™ Reagent. The 384-well plate was centrifuged and then the reaction mixture was incubated for another 40 minutes at ambient temperature.
10 μl of the Kinase Detection Reagent was added. The plate was centrifuged and then the reaction mixture was incubated for another 30 minutes at ambient temperature.
The 384-well reaction plate was read using the WALLAC plate reader (Luminescence 0.1s).

[4] = Bioavailability of prodrug I-3, rat; assay type: in vivo; settings: measured as amount of parent compound I-1 detected
IRAK1 = IRAK1 (Homo sapiens, UniProt P51617); assay: IRAK1 ADP-Glo kinase assay; assay type: biochemical; settings: read-out: IRAK1 ADP-Glo Kinase, 8 pt EC50
Sequence of IRAK1 (P51617 whole entry): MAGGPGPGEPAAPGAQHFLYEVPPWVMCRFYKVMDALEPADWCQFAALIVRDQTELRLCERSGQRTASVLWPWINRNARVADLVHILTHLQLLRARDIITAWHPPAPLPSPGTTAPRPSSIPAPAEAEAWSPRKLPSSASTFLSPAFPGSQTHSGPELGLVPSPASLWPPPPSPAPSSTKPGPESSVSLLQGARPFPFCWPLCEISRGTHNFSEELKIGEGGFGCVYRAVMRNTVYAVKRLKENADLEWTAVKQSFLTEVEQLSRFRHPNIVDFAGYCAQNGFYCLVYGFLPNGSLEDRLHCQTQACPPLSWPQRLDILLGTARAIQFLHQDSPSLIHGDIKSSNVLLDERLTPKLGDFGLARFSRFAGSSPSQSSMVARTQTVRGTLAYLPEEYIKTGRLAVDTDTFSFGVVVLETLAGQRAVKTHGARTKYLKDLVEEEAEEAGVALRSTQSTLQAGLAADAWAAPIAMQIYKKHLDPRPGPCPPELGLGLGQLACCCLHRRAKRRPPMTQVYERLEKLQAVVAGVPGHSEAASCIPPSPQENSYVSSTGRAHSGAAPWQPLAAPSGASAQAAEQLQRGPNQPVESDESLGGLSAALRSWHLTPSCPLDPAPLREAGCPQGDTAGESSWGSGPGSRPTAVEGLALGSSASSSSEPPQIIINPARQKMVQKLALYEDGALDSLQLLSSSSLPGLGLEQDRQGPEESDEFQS

Row | SMILES | Bioavailability (% F) of Compound I-3 [1] | Bioavailability (% F) of Compound I-3 [2] | EC50 (IL23p19 in THP-1 Cells; THP-1, 18 h) | Bioavailability (% F) of Compound I-3 [3] | EC50 (IRAK4) | Bioavailability (% F) of Compound I-3 [4] | EC50 (IRAK1) | EC50 (IL23p19 in THP-1 Cells)
1 | CCO[C@H]1CC[C@H](n2cc(NC(=O)c3csc(-c4cnn(COP(=O)(O)O)c4)n3)c(-c3ncccn3)n2)CC1 [Compound I-3, sodium (4-(4-((1-((1r,4r)-4-ethoxycyclohexyl)-3-(pyrimidin-2-yl)-1H-pyrazol-4-yl)carbamoyl)thiazol-2-yl)-1H-pyrazol-1-yl)methyl phosphate] | 71 % F | 34 % F | 54.4 nM | 53 % F | 128 nM | 12 % F | 61.8 nM | 
2 | CCO[C@H]1CC[C@H](n2cc(NC(=O)c3csc(-c4cn[nH]c4)n3)c(-c3ncccn3)n2)CC1 [Compound I-4, N-(1-((1r,4r)-4-ethoxycyclohexyl)-3-(pyrimidin-2-yl)-1H-pyrazol-4-yl)-2-(1H-pyrazol-4-yl)thiazole-4-carboxamide tartaric acid salt] |  |  | 2.5 nM |  | 18.8 nM |  | 28.1 nM | 
3 | CCO[C@H]1CC[C@H](n2cc(NC(=O)c3csc(-c4cnn(COP(=O)(O)O)c4)n3)c(-c3ncccn3)n2)CC1 [Compound I-2, (4-(4-((1-((1r,4r)-4-ethoxycyclohexyl)-3-(pyrimidin-2-yl)-1H-pyrazol-4-yl)carbamoyl)thiazol-2-yl)-1H-pyrazol-1-yl)methyl dihydrogen phosphate] |  |  |  |  | 46.4 nM |  | 3910 nM | 11 nM
